Data as given in paper PMC9913425, “Pentacyclic Triterpenoids-Based Ionic Compounds: Synthesis, Study of Structure–Antitumor Activity Relationship, Effects on Mitochondria and Activation of Signaling Pathways of Proliferation, Genome Reparation and Early Apoptosis” (Cancers, 2023).

Legend:
Jurkat = assay: In vitro cytotoxicity, IC50 by flow cytometry (Guava ViaCount); type: cell-based; conditions: Jurkat cells
Protocol: (§1) Human cancer cell line HeLa, HL60, A2780 was obtained from the HPA Culture Collections (Salisbury, UK). Cells (Jurkat, K562, U937, Hek293, Fibroblasts) were purchased from Russian Cell Culture Collection (Institute of Cytology of the Russian Academy of Sciences, […], Russia) and cultured according to standard protocols and sterile technique. […] Cells were maintained in RPMI 1640 (Jurkat, K562, U937, HL60) (Gibco, Billings, MT, USA) supplemented with […], 10% FBS (Sigma) and 100 units/mL penicillin–streptomycin (Sigma). All types of cells were grown in an atmosphere of 5% CO2 at 37 °C. The cells were subcultured at 2–3 days intervals. Cells were then seeded in 24-well plates at 5 × 10^4 cells per well and incubated overnight. Jurkat, K562, U937, HL60 cells were subcultured at 2-day intervals with a seeding density of 1 × 10^5 cells per 24-well plates in RPMI with 10% FBS.
(§2) The antitumor activity of the synthesized ionic compounds was initially assessed in vitro on Jurkat, K562, U937, HL60, HEK293, A2780 cell lines, including the determination of IC50 by flow cytometry involving Guava ViaCount (Millipore) reagent kits.

HEK293 = assay: as above; type: cell-based; conditions: conditionally normal
Protocol: as §1, §2

U937 = assay: as above; type: cell-based
Protocol: as §1, §2

K562 = assay: as above; type: cell-based
Protocol: as §1, §2

A2780 = assay: as above; type: cell-based, human
Protocol: as §1, §2

HL60 = assay: as above; type: cell-based, human
Protocol: as §1, §2

[1] = system: mitochondria of Jurkat tumor cells; assay: Mitochondrial damage (MitoSense Red staining); type: cell-based; conditions: compound at IC50 concentration, incubation 2 h
Jurkat cells = assay: Apoptosis/necrosis induction (Annexin V Alexa Fluor488, 7AAD staining); type: cell-based; conditions: compound at IC50 concentration, incubation 2 h
Source text: Multiparametric evaluation of marker molecules, along with the detection of damage to the mitochondrial membrane, makes it possible to clearly determine the type of cell death. The method of cell staining with three different dyes (Annexin V Alexa Fluor488, 7AAD and MitoSense Red) provides simultaneous specification of various aspects of the state of the cell membrane, the state of DNA and the viability of mitochondria; together, it is a reliable sign of intrinsic and mitochondrial apoptosis pathway. Normal cells with intact mitochondrial membranes have high MitoSense Red fluorescence, while cells with decoupled oxidation and phosphorylation have much lower fluorescence. […]
Figure 1 The ratio of the level of mito-damage and the level of apoptosis in Jurkat cells of ionic compounds based on ursolic, oleanolic and betulinic acids.

[2] = Homo sapiens, HEK293, HEK293 cells
[3] = Homo sapiens, U-937, U937 cells
[4] = Homo sapiens, A2780, A2780 cells
[5] = Homo sapiens, HL-60, HL60 cells

Compound	IC50 (Jurkat)	IC50 (HEK293; HEK293 cells)	IC50 (U937; U937 cells)	IC50 (K562; K562 cells)	IC50 (A2780; A2780 cells)	IC50 (HL60; HL60 cells)	Mito-Damage (%) [1]	Apoptosis (%) Early (Jurkat cells)	Apoptosis (%) Late (Jurkat cells)	Apoptosis (%) Necrosis (Jurkat cells)	IC50 (Jurkat; Homo sapiens, Jurkat)	IC50 (HEK293; [2])	IC50 (U937; [3])	IC50 (K562; Homo sapiens, K562, K562 cells)	IC50 (A2780; [4])	IC50 (HL60; [5])	percentage of cells in the apoptotic state (Jurkat cells)
1-Butyl-3-methylimidazolium (3β)-3-hydroxyolean-12-en-28-oylate [15b]	0.019 ± 0.001 µM	0.167 ± 0.016 µM	0.038 ± 0.002 µM	0.041 ± 0.002 µM	0.079 ± 0.007 µM	0.017 ± 0.002 µM											
C[n+]1ccn(CCCCCCOC(=O)[C@]23CCC(C)(C)CC2C2=CCC4[C@@]5(C)CC[C@H](O)C(C)(C)C5CC[C@@]4(C)[C@]2(C)CC3)c1 (stereo partly drawn) [9c, 1-(6-{[(3β)-3-Hydroxyolean-12-en-28-oyl]oxy}hexyl)-3-methylimidazolium bromide]	0.026 ± 0.001 µM	0.318 ± 0.029 µM	0.119 ± 0.005 µM	0.133 ± 0.006 µM	0.234 ± 0.021 µM	0.031 ± 0.003 µM											
C=C(C)[C@@H]1CC[C@]2(C(=O)[O-])CC[C@]3(C)[C@H](CC[C@@H]4[C@@]5(C)CC[C@H](O)C(C)(C)[C@@H]5CC[C@]43C)[C@@H]12.CCn1cc[n+](C)c1 [17a, 1-Ethyl-3-methylimidazolium (3β)-3-hydroxyolup-20(29)-en28-oylate]	0.018 ± 0.001 µM	0.182 ± 0.017 µM	0.034 ± 0.002 µM	0.041 ± 0.002 µM	0.081 ± 0.008 µM	0.017 ± 0.002 µM	8.84%	2.91%	1.38%	3.30%							
CC1(C)CC[C@]2(C(=O)OCCCCCC[N+](C)(C)CCO)CC[C@]3(C)C(=CCC4[C@@]5(C)CC[C@H](O)C(C)(C)C5CC[C@]43C)C2C1 (stereo partly drawn) [12f, N-(2-Hydroxyethyl)-N-(6-{[(3β)-3-hydroxyolean-12-en-28-oyl]oxy}hexyl)-N,N-dimethylaminium bromide]							86.98%	0.0%	30.87%	54.23%	0.017 ± 0.001 µM	0.026 ± 0.002 µM	0.042 ± 0.002 µM	0.049 ± 0.002 µM	0.015 ± 0.001 µM	0.011 ± 0.001 µM	85.10%
C[C@@H]1CC[C@]2(C(=O)OCCCCCCn3cc[n+](C)c3)CC[C@]3(C)C(=CCC4[C@@]5(C)CC[C@H](O)C(C)(C)C5CC[C@]43C)C2[C@H]1C (stereo partly drawn) [10c]							8.89%	6.61%	4.08%	0.61%	0.003 ± 0.001 µM	0.024 ± 0.002 µM	0.006 ± 0.001 µM	0.007 ± 0.001 µM	0.011 ± 0.001 µM	0.002 ± 0.001 µM	
CCn1cc[n+](C)c1.C[C@H]1[C@H](C)CC[C@]2(C(=O)[O-])CC[C@]3(C)C(=CC[C@@H]4[C@@]5(C)CC[C@H](O)C(C)(C)[C@@H]5CC[C@]43C)[C@H]12 [16a, 1-Ethyl-3-methylimidazolium (3β)-3-hydroxyours-12-en-28-oylate]	0.033 ± 0.002 µM	0.178 ± 0.018 µM	0.034 ± 0.002 µM	0.036 ± 0.002 µM	0.088 ± 0.007 µM	0.018 ± 0.002 µM											
C[n+]1ccn(CCCCCCOC(=O)[C@]23CCC(C)(C)CC2C2=CCC4[C@@]5(C)CC[C@H](O)C(C)(C)C5CC[C@@]4(C)[C@]2(C)CC3)c1.O=S(=O)([O-])c1ccccc1 (stereo partly drawn) [13e, 1-(6-{[(3β)-3-Hydroxyolean-12-en-28-oyl]oxy}hexyl)-3-methylimidazolium Benzenesulfonate]	0.011 ± 0.001 µM	0.046 ± 0.004 µM	0.014 ± 0.001 µM	0.017 ± 0.001 µM	0.024 ± 0.002 µM	0.004 ± 0.001 µM	7.71%	6.26%	3.12%	1.52%							
C[n+]1ccn(CCCCOC(=O)[C@]23CCC(C)(C)CC2C2=CCC4[C@@]5(C)CC[C@H](O)C(C)(C)C5CC[C@@]4(C)[C@]2(C)CC3)c1 (stereo partly drawn) [9b, 1-(4-{[(3β)-3-Hydroxyolean-12-en-28-oyl]oxy}butyl)-3-methylimidazolium bromide]											0.029 ± 0.002 µM	0.449 ± 0.041 µM	0.135 ± 0.007 µM	0.149 ± 0.007 µM	0.257 ± 0.024 µM	0.046 ± 0.004 µM	
1-Hexyl-3-methylimidazolium (3β)-3-hydroxyolean-12-en-28-oylate [15d]	0.107 ± 0.006 µM	0.581 ± 0.047 µM	0.143 ± 0.007 µM	0.159 ± 0.008 µM	0.231 ± 0.022 µM	0.069 ± 0.007 µM											
1-Hexyl-3-methylimidazolium (3β)-3-hydroxyours-12-en-28-oylate [16c]	0.007 ± 0.001 µM	0.081 ± 0.008 µM	0.014 ± 0.001 µM	0.016 ± 0.001 µM	0.039 ± 0.004 µM	0.007 ± 0.001 µM											
C[C@H](O)C(=O)[O-].C[n+]1ccn(CCCCCCOC(=O)[C@]23CCC(C)(C)CC2C2=CCC4[C@@]5(C)CC[C@H](O)C(C)(C)C5CC[C@@]4(C)[C@]2(C)CC3)c1 (stereo partly drawn) [13g, 1-(6-{[(3β)-3-Hydroxyolean-12-en-28-oyl]oxy}hexyl)-3-methylimidazolium L-lactate]	0.007 ± 0.001 µM	0.026 ± 0.002 µM	0.013 ± 0.001 µM	0.014 ± 0.001 µM	0.013 ± 0.001 µM	0.002 ± 0.001 µM	97.4%										
C[n+]1ccn(CCCCCCOC(=O)[C@]23CCC(C)(C)CC2C2=CCC4[C@@]5(C)CC[C@H](O)C(C)(C)C5CC[C@@]4(C)[C@]2(C)CC3)c1 (stereo partly drawn) [13a, 1-(6-{[(3β)-3-Hydroxyolean-12-en-28-oyl]oxy}hexyl)-3-methylimidazolium Tetrafluoroborate]	0.003 ± 0.001 µM	0.024 ± 0.002 µM	0.005 ± 0.001 µM	0.006 ± 0.001 µM	0.018 ± 0.002 µM	0.002 ± 0.001 µM											
1-Hexyl-3-methylimidazolium (3β)-3-hydroxyolean-12-en-28-oylate [15c]	0.043 ± 0.002 µM	0.392 ± 0.038 µM	0.069 ± 0.003 µM	0.08 ± 0.004 µM	0.157 ± 0.018 µM	0.039 ± 0.004 µM											
CC1(C)CCC2(C(=O)[O-])CCC3(C)C(=CCC4C5(C)CCC(O)C(C)(C)C5CCC43C)C2C1.CC[n+]1ccn(C)c1 (stereo not drawn) [15a, 1-Ethyl-3-methylimidazolium (3β)-3-hydroxyolean-12-en-28-oylate]	0.047 ± 0.003 µM	0.359 ± 0.031 µM	0.079 ± 0.005 µM	0.088 ± 0.005 µM	0.162 ± 0.012 µM	0.034 ± 0.003 µM											
1-Benzyl-3-methylimidazolium (3β)-3-hydroxyours-12-en-28-oylate [16d]	0.011 ± 0.001 µM	0.056 ± 0.004 µM	0.011 ± 0.001 µM	0.012 ± 0.001 µM	0.027 ± 0.002 µM	0.005 ± 0.001 µM											
1-Butyl-3-methylimidazolium (3β)-3-hydroxyours-12-en-28-oylate [16b]	0.097 ± 0.006 µM	0.935 ± 0.094 µM	0.299 ± 0.014 µM	0.336 ± 0.016 µM	0.396 ± 0.035 µM	0.089 ± 0.008 µM											
